Experimental data as given in ChEMBL document CHEMBL1201862, “PubChem BioAssay data set” (2004).
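Interpolation was linear, between the two tested concentrations surrounding the appropriate level; five concentrations were tested over 48 hours in 96-well plates. GI50: concentration for 50% inhibition of growth.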 Activity calls are given as the source filed them. Cut-off read from the data, not from the text of the source: active = GI50 up to about 1.1 µM and inactive = higher.

Experiments:
Assay in all cases: DTP human tumour cell line panel, 48 h
Malme-3M = tested on: Malme-3M
RXF 393 = tested on: RXF 393
EKVX = tested on: EKVX
OVCAR-4 = tested on: OVCAR-4
T47D = tested on: T47D
ACHN = tested on: ACHN
OVCAR-8 = tested on: OVCAR-8
DU-145 = tested on: DU-145
HL-60 = tested on: HL-60
SNB-75 = tested on: SNB-75
SR = tested on: SR
HOP-62 = tested on: HOP-62
UACC-257 = tested on: UACC-257
HCT-116 = tested on: HCT-116
HCC 2998 = tested on: HCC 2998
SF-295 = tested on: SF-295
MDA-MB-231 = tested on: MDA-MB-231
M14 = tested on: M14
MOLT-4 = tested on: MOLT-4
SK-MEL-28 = tested on: SK-MEL-28

| SMILES | GI50 (Malme-3M) | GI50 (RXF 393) | GI50 (EKVX) | GI50 (OVCAR-4) | GI50 (T47D) | GI50 (ACHN) | GI50 (OVCAR-8) | GI50 (DU-145) | GI50 (HL-60) | GI50 (SNB-75) | GI50 (SR) | GI50 (HOP-62) | GI50 (UACC-257) | GI50 (HCT-116) | GI50 (HCC 2998) | GI50 (SF-295) | GI50 (MDA-MB-231) | GI50 (M14) | GI50 (MOLT-4) | GI50 (SK-MEL-28) |
| --- | --- | --- | --- | --- | --- | --- | --- | --- | --- | --- | --- | --- | --- | --- | --- | --- | --- | --- | --- | --- |
| Nc1ccc(C(=O)NN2C(=O)[C@H](Cl)C2c2ccc(Cl)cc2)cc1 (stereo partly drawn) | 2.21 µM (inactive) | 2.72 µM (inactive) | 3.55 µM (inactive) | 0.615 µM (active) | 1.85 µM (inactive) | 0.789 µM (active) | 1.76 µM (inactive) | 1.56 µM (inactive) | 1.91 µM (inactive) | 0.223 µM (active) | 0.324 µM (active) | 1.77 µM (inactive) | 1.74 µM (inactive) | 0.434 µM (active) | 1.65 µM (inactive) | 4.55 µM (inactive) | 1.81 µM (inactive) | 1.58 µM (inactive) | 1.09 µM (active) | 0.265 µM (active) |
| COc1ccc(N2C(=O)C(C)SC2c2cc3cc(Br)ccc3nc2Cl)cc1 (stereo not drawn) | 82.4 µM (inactive) | 28.8 µM (inactive) | 21.6 µM (inactive) | 27.8 µM (inactive) | 34.3 µM (inactive) | 48.8 µM (inactive) | 37.5 µM (inactive) | 57.3 µM (inactive) | 24.8 µM (inactive) | 91 µM (inactive) | 18.1 µM (inactive) | 36.2 µM (inactive) | 30.7 µM (inactive) | 37.8 µM (inactive) | 33.3 µM (inactive) | 33.1 µM (inactive) | 31.6 µM (inactive) | 44.4 µM (inactive) | 20.9 µM (inactive) | 38.1 µM (inactive) |
| CN(Nc1cc(=O)[nH]c(=O)[nH]1)c1ccccc1 | > 100 µM (inactive) | > 100 µM (inactive) | > 100 µM (inactive) | > 100 µM (inactive) | > 100 µM (inactive) | > 100 µM (inactive) | > 100 µM (inactive) | > 100 µM (inactive) | > 100 µM (inactive) | 58.9 µM (inactive) | > 100 µM (inactive) | > 100 µM (inactive) | > 100 µM (inactive) | > 100 µM (inactive) | > 100 µM (inactive) | > 100 µM (inactive) | > 100 µM (inactive) | > 100 µM (inactive) | > 100 µM (inactive) | > 100 µM (inactive) |
| O=C1N/C(=N/N=C\C(O)C(O)C(O)C(O)CO)N/C1=C\c1ccc(Cl)cc1 (stereo not drawn) | 2.76 µM (inactive) | 7.19 µM (inactive) | 12.1 µM (inactive) | 7.46 µM (inactive) | 3.25 µM (inactive) | 21.9 µM (inactive) | 1.53 µM (inactive) | 15.2 µM (inactive) | 25.3 µM (inactive) | 2.3 µM (inactive) | 4.04 µM (inactive) | 2.72 µM (inactive) | 14.5 µM (inactive) | 9.59 µM (inactive) | 12.4 µM (inactive) | 9.23 µM (inactive) | 4.81 µM (inactive) | 3.1 µM (inactive) | 3.9 µM (inactive) | 8.55 µM (inactive) |
| Cc1cc(O)c2c(c1)C(=O)C(c1c(C)cc3c(c1O)C(=O)C1OC1C3=O)=CC2=O (stereo not drawn) | 1.73 µM (inactive) | 1.35 µM (inactive) | 3.15 µM (inactive) | 3.33 µM (inactive) | 1.98 µM (inactive) | 0.885 µM (active) | 4.11 µM (inactive) | 6.7 µM (inactive) | 0.0175 µM (active) | 12.4 µM (inactive) | 0.327 µM (active) | 13.1 µM (inactive) | 4.74 µM (inactive) | 1.71 µM (inactive) | 5.93 µM (inactive) | 16.5 µM (inactive) | 2.03 µM (inactive) | 2.96 µM (inactive) | 0.147 µM (active) | 1.94 µM (inactive) |
| C[S+]([O-])c1ncc2c(n1)-c1ccccc1OC2 (stereo not drawn) | > 100 µM (inactive) | > 100 µM (inactive) | 70.1 µM (inactive) | 85.9 µM (inactive) | 35.2 µM (inactive) | 92.5 µM (inactive) | > 100 µM (inactive) | 38.6 µM (inactive) | 36.7 µM (inactive) | > 100 µM (inactive) | > 100 µM (inactive) | > 100 µM (inactive) | 40.3 µM (inactive) | > 100 µM (inactive) | 38.4 µM (inactive) | > 100 µM (inactive) | > 100 µM (inactive) | > 100 µM (inactive) | > 100 µM (inactive) | > 100 µM (inactive) |
| C=C1C(=O)OC2/C=C(\CO)C3OC3C3OC3(C)CC(OC(=O)/C(=C/C)COC(C)=O)C12 (stereo not drawn) | 1.67 µM (inactive) | 1.71 µM (inactive) | 3.81 µM (inactive) | 8.3 µM (inactive) | 3.01 µM (inactive) | 3.4 µM (inactive) | 2.79 µM (inactive) | 17.1 µM (inactive) | 1.39 µM (inactive) | 9.68 µM (inactive) | 2.09 µM (inactive) | 21.6 µM (inactive) | 3.84 µM (inactive) | 1.55 µM (inactive) | 16.5 µM (inactive) | 10 µM (inactive) | 6.04 µM (inactive) | 2.75 µM (inactive) | 7.89 µM (inactive) | 1.82 µM (inactive) |
| COC(=O)c1ccccc1CC(Cc1ccc2c(c1)CCC2)C(=O)OC (stereo not drawn) | 33.3 µM (inactive) | > 100 µM (inactive) | > 100 µM (inactive) | > 100 µM (inactive) | > 100 µM (inactive) | > 100 µM (inactive) | > 100 µM (inactive) | > 100 µM (inactive) | 45.9 µM (inactive) | 98.4 µM (inactive) | 36.9 µM (inactive) | > 100 µM (inactive) | 34.6 µM (inactive) | 49.1 µM (inactive) | > 100 µM (inactive) | > 100 µM (inactive) | > 100 µM (inactive) | > 100 µM (inactive) | 31.8 µM (inactive) | > 100 µM (inactive) |
| CCOC(=O)CC1(O)CCCCC1(Sc1ccc(C)cc1)Sc1ccc(C)cc1 (stereo not drawn) | 30.5 µM (inactive) | 42.4 µM (inactive) | 26.9 µM (inactive) | 47.8 µM (inactive) | 19.4 µM (inactive) | 51.5 µM (inactive) | 56.1 µM (inactive) | 59.2 µM (inactive) | 24.7 µM (inactive) | 27.5 µM (inactive) | 31.3 µM (inactive) | 54.2 µM (inactive) | 24.1 µM (inactive) | 33.9 µM (inactive) | 31.5 µM (inactive) | 41 µM (inactive) | 77.4 µM (inactive) | 41.4 µM (inactive) | 24.9 µM (inactive) | 39.2 µM (inactive) |
| Cc1c2ncccc2cc2oc3ccccc3c(=O)c12 | 68.4 µM (inactive) | 61.4 µM (inactive) | 11.1 µM (inactive) | 35.8 µM (inactive) | 18.1 µM (inactive) | 21.9 µM (inactive) | 80.2 µM (inactive) | 29.2 µM (inactive) | 34 µM (inactive) | > 100 µM (inactive) | 41.2 µM (inactive) | 30.9 µM (inactive) | 58.5 µM (inactive) | 31.3 µM (inactive) | 60.7 µM (inactive) | 31.6 µM (inactive) | 92 µM (inactive) | – | 2.94 µM (inactive) | > 100 µM (inactive) |
| C#CCSc1cnc2ccccc2c1Sc1c[nH]c2ccccc2c1=O | 19.4 µM (inactive) | 13.6 µM (inactive) | 19.1 µM (inactive) | 20.9 µM (inactive) | 10.9 µM (inactive) | 13.6 µM (inactive) | 24.7 µM (inactive) | 51.3 µM (inactive) | 16.6 µM (inactive) | 15.9 µM (inactive) | 3.86 µM (inactive) | 26.5 µM (inactive) | 17.6 µM (inactive) | 13.3 µM (inactive) | 17.9 µM (inactive) | 24.1 µM (inactive) | 31.9 µM (inactive) | 17 µM (inactive) | 4.53 µM (inactive) | 34.8 µM (inactive) |
| COC(=O)CNC(=O)CCC(C)[C@H]1CCC2C3C(C[C@H](OC(C)=O)[C@@]21C)[C@@]1(C)CCC2(C[C@H]1C[C@H]3OC(C)=O)OOC1(CCCCC1)OO2 (stereo partly drawn) | 3.37 µM (inactive) | 1.99 µM (inactive) | 2.18 µM (inactive) | 1.83 µM (inactive) | 2.58 µM (inactive) | 1.89 µM (inactive) | 1.82 µM (inactive) | 2.34 µM (inactive) | 2.36 µM (inactive) | 2.23 µM (inactive) | 1.24 µM (inactive) | 0.579 µM (active) | 6.31 µM (inactive) | 2.73 µM (inactive) | 2 µM (inactive) | 6.08 µM (inactive) | 1.64 µM (inactive) | 3.91 µM (inactive) | 3.55 µM (inactive) | 9.29 µM (inactive) |
| COc1cccc(-c2cc(=O)c3ccccc3o2)c1N | 3.62 µM (inactive) | 45 µM (inactive) | 16.2 µM (inactive) | 84.3 µM (inactive) | 11.9 µM (inactive) | > 100 µM (inactive) | 53 µM (inactive) | > 100 µM (inactive) | 6.76 µM (inactive) | 51.6 µM (inactive) | > 100 µM (inactive) | 18.3 µM (inactive) | 36.6 µM (inactive) | 52 µM (inactive) | 28.2 µM (inactive) | > 66.1 µM (inactive) | 26.9 µM (inactive) | 5.56 µM (inactive) | > 100 µM (inactive) | 10.1 µM (inactive) |
| O=[N+]([O-])c1ccc2nc(Nc3ccccc3)c(Nc3ccccc3)nc2c1 | 1.84 µM (inactive) | 2.57 µM (inactive) | 1.82 µM (inactive) | 2.87 µM (inactive) | 2.63 µM (inactive) | 0.681 µM (active) | 1.03 µM (active) | 1.77 µM (inactive) | 9.31 µM (inactive) | 2 µM (inactive) | 0.489 µM (active) | 1.19 µM (inactive) | 2.15 µM (inactive) | 0.555 µM (active) | 1.25 µM (inactive) | 1.14 µM (inactive) | 1.36 µM (inactive) | – | 1.55 µM (inactive) | 2.45 µM (inactive) |
